Data published in patent US20060051321A1, “Biological compositions and methods for treatment of testicular cancer” (Ultra Biotech Limited, priority 2003, published 2006).

Columns and labels:
Assay type in all cases: in vivo
[1] = tested on: testicular cancer cell line HTB-104; assay: Tumor growth in kun ming mouse model of human testicular cancer (Example 6); settings: mice injected s.c. with HTB-104 cells; 30 consecutive days of treatment; sacrificed on 31st day from tumor inoculation
Source text: The following example illustrates the benefit of a biological composition of the invention in a kun ming mouse model of human testicular cancer. The growth of tumors in the mice was studied.
Numerous animal studies have reported the use of kun ming mouse models in the study of human testicular cancer. There is almost a 100% success rate for transplanting testicular tumor HTB-104 cells in mice. The testicular tumor cell line HTB-104 can be ordered from the American Type Culture Collection.
(§1) The biological composition comprising 10^8 cells per ml of activated and conditioned yeast cells of the strain Saccharomyces cerevisiae Hansen strain AS2.182 was prepared by the methods described in Section 5.1 and subsections therein.
The animals used for the experiments were kun ming mouse (obtainable from the Chinese Academy of Military Medical Sciences, Beijing, China). Only males 20 to 22 gram in body weight, 6 to […] old were used. […]
The mice received the biological compositions, untreated yeast cells, BLM or saline on the same day as the tumor cells were transplanted. […] On the 31st day from tumor inoculation, the mice were sacrificed and the weight of the mice and the weight of the tumor were determined by standard techniques.

[2] = tested on: testicular cancer cell line HTB-104; assay: Survival in kun ming mouse model of human testicular cancer (Example 7); settings: for Number of live animals remaining in the groups after 30 days of treatment: 30 mice per group
Protocol: The following example illustrates the benefit of a biological composition of the invention in a kun ming mouse model of human testicular cancer. The survival time of rats after tumor injection and treatment was studied.
The biological composition comprising 10^8 cells per ml of activated and conditioned yeast cells of the strain Saccharomyces cerevisiae Hansen strain AS2. 182 was prepared by the methods described in Section 5.1 and subsections therein.
The animals were prepared in a similar manner as described in Section 6.1.
(§2) After injection with HTB-104 cells, the mice were divided into 4 experimental groups of ten mice per group and one control group. The four experimental groups were triplicated (i.e., using a total of 120 mice in the experimental groups). In group 2AY, the mice received 0.5 ml of the biological composition once per day. In group 2NY, the mice received 0.5 ml of the untreated yeast cells once per day. In group 2BLM, the mice were injected subcutaneously with 0.8 mg of bleomycin (BLM) per kg body weight per day. In group 2CK1, the mice received 0.5 ml of physiological saline once per day.
The mice received the biological compositions, untreated yeast cells, BLM or saline on the same day as the tumor cells were transplanted. The mice in group 2CK2 also started receiving saline on the same day as the other four groups. The biological compositions, untreated yeast cells or saline were administered orally by a feeding tube and the BLM by subcutaneous injection for 30 consecutive days. The mice were observed over 6 months from the day of tumor inoculation and survival was recorded. The weight of the mice and the weight of the tumor were determined by standard techniques.

[3] = tested on: testicular cancer cell line CRL-1973; assay: Survival in Wistar rat model of human testicular cancer (Example 9); settings: for Number of live animals remaining in the groups after 30 days of treatment: 30 rats per group
Protocol: The survival time of mice after tumor injection and treatment was studied.
as §1
The animals were prepared in a similar manner as described in Section 8.1.
as §2, with “CRL-1973” for “HTB-104”, “rats” for “mice”, “(ie.,” for “(i.e.,”, “1.2” for “0.5”, “In group 2BLM, the mice were injected subcutaneously with 0.8 mg of bleomycin (BLM) per kg body weight per day.” left out
The rats received the biological compositions, untreated yeast cells, VLB or saline on the same day as the tumor cells were transplanted. The rats in group 2CK2 also started receiving saline on the same day as the other four groups. The biological compositions, untreated yeast cells and saline were administered orally by a feeding tube and the VLB by intravenous injection for 30 consecutive days. The mice were observed over 6 months from the day of tumor inoculation and survival was recorded. The weight of the mice and the weight of the tumor were determined by standard techniques.

[4] = tested on: testicular cancer cell line CRL-1973; assay: Tumor growth in Wistar rat model of human testicular cancer (Example 8); settings: rats injected s.c. with CRL-1973 cells; 30 consecutive days of treatment; sacrificed on 31st day from tumor inoculation
Source text: The following example illustrates the benefit of a biological composition of the invention in a Wistar rat model of human testicular cancer. The growth of the tumor in the rats was studied.
Numerous animal studies have reported the use of Wistar rat models in the study of human testicular cancer. There is very high success rate for transplanting testicular tumor CRL-1973 cells in rats. The testicular tumor cell line CRL-1973 can be ordered from the American Type Culture Collection.
as §1
The animals used for the experiments were male Wistar rats (obtainable from the Chinese Academy of Military Medical Sciences, Beijing, China). About 2×10^7 viable tumor cells of the testicular cancer cell line CRL-1973 (obtainable from the Cancer Institute, Chinese Academy of Medical Sciences, Beijing, China) in about 0.2 ml culture suspension was injected subcutaneously into the animals. […]
The rats received the biological compositions, untreated yeast cells, VLB or saline on the same day as the tumor cells were transplanted. […] The weight of the rats and the weight of the tumor were determined by standard techniques.

[5] = 0 month after cessation of treatment
[6] = 1 month after cessation of treatment
[7] = 2 months after cessation of treatment
[8] = 3 months after cessation of treatment
[9] = 4 months after cessation of treatment
[10] = 5 months after cessation of treatment
[11] = 6 months after cessation of treatment

bleomycin [BLM]
mean weight of tumor nodules and standard deviation [1]: 1.13 ± 0.65 mg
Number of live animals remaining in the groups after 30 days of treatment [2, 5]: 30
Number of live animals remaining in the groups after 30 days of treatment [2, 6]: 27
Number of live animals remaining in the groups after 30 days of treatment [2, 7]: 16
Number of live animals remaining in the groups after 30 days of treatment [2, 8]: 0
Number of live animals remaining in the groups after 30 days of treatment [2, 9]: 0
Number of live animals remaining in the groups after 30 days of treatment [2, 10]: 0
Number of live animals remaining in the groups after 30 days of treatment [2, 11]: 0
death of all animals, time from injection of tumor cells ([2]; mice bearing HTB-104 cells, 30 days of treatment): all died after three months
mean weight of tumor nodules and standard deviation ([2]; mice that survived, observed over 6 months from tumor inoculation): all animals dead

CC[C@]1(O)C[C@@H]2CN(CCc3c([nH]c4ccccc34)[C@@](C(=O)OC)(c3cc4c(cc3OC)N(C)[C@H]3[C@@](O)(C(=O)OC)[C@H](OC(C)=O)[C@]5(CC)C=CCN6CC[C@]43[C@@H]65)C2)C1 [VLB, vinblastine]
Number of live animals remaining in the groups after 30 days of treatment [3, 5]: 30
Number of live animals remaining in the groups after 30 days of treatment [3, 6]: 30
Number of live animals remaining in the groups after 30 days of treatment [3, 7]: 22
Number of live animals remaining in the groups after 30 days of treatment [3, 8]: 9
Number of live animals remaining in the groups after 30 days of treatment [3, 9]: 1
Number of live animals remaining in the groups after 30 days of treatment [3, 10]: 0
Number of live animals remaining in the groups after 30 days of treatment [3, 11]: 0
death of all animals, time from injection of tumor cells ([3]; rats bearing CRL-1973 cells, 30 days of treatment): all died after five months
mean weight of tumor nodules and standard deviation ([3]; rats that survived, observed over 6 months from tumor inoculation): all animals dead
mean weight of tumor nodules and standard deviation [4]: 2.67 ± 2.65 g
